According to patent US20120040464A1, “METHOD FOR GENERATING HOMOPLASMIC CELLS FROM HETEROPLASMIC CELLS” (NATIONAL CENTER OF NEUROLOGY AND PSYCHIATRY, priority 2009, published 2012):

Tested on: MELAS cells (primary culture cells from the skeletal muscle and skin of MELAS patients)
Conditions: 100 μM, 30 minutes
Procedure: MELAS cells were plated to result in a cell density of 1×10^5 to 1×10^6 cells/mL in the presence of DMEM containing 10% FCS, and they were then cultured at 37° C. in a 5% CO2 atmosphere for 3 days. After completion of the culture for 3 days, when the cell density reached 5×10^5 to 6×10^6 cells/mL, the cells were diluted by a factor of 10^4 to 1.2×10^5. The resultant cells were plated and were further cultured for 15 days. After completion of the culture for 15 days, several single colonies of cells were selected, and DNA was then extracted by a common method. Using the extracted DNA sample as a template, PCR was carried out with a primer pair for amplifying a site around the nucleotide at position 3243 of the mtDNA. Thereafter, the PCR product was treated with ApaI. In the case of normal mtDNA, the sequence around the nucleotide at position 3243 is GAGCCC (wherein the underlined portion corresponds to the nucleotide at position 3243). […] Accordingly, it becomes possible to evaluate the heteroplasmic state of the cells by calculating the ratio of the 182-bp and 112-bp bands to the 294-bp bands (see Goto et al., Nature, 348, 651-653, 1990 for the details of this method).
Thereafter, the cells were washed with PBS three times, and were then cultured for 3 days. After completion of the culture for 3 days, when the cell density reached 5×10^5 to 6×10^6 cells/mL, the cells were diluted by a factor of 10^4 to 1.2×10^5. The resultant cells were plated and were further cultured for 15 days. After completion of the culture for 15 days, several single colonies of cells were selected, and DNA was then extracted by a common method. The intracellular percentage of the A3243G substitution mutation of mtDNA was examined with respect to the obtained DNA samples by the same method as described above.

Structure (SMILES): OO [hydrogen peroxide]
- percentage of A3243G substitution mutation in cell clones obtained after a hydrogen peroxide treatment (then 3 days and 15 days culture, single-colony clones with decreased percentage, e.g. clone 16, clone 25): ~0%
- percentage of A3243G substitution mutation in clones where it became higher than without hydrogen peroxide treatment (e.g. clones 15, 27, 29, 32, 34, 35, 36, 39, untreated 30%): > 30%
- effect of treatment on homoplasmic state of the cells (MELAS cells): promotes the conversion of the cells to a homoplasmic state
